Source: the NIST ThermoML archive (doi:10.1021/je301123j)

Experiment: xn = mol fraction of the nth substance listed
Conditions: for surface tension liquid-gas: Ring tensiometer; for mass density / speed of sound / viscosity: 100 kPa, Liquid

CCN1CCCC1=O [1-ethyl-2-pyrrolidinone] + OCCNCCO
Conditions	mass density [kg/m3]	speed of sound [m/s]	surface tension liquid-gas [mN/m]	viscosity [mPa·s]
293.15 K, x1 = 0.1	1084.34	1700.4	44.5	462.69
293.15 K, x1 = 0.2005	1072.76	1666.7	42.8	227.23
293.15 K, x1 = 0.3001	1061.83	1638.2	41.2	109.6
293.15 K, x1 = 0.4002	1051.18	1611.7	40.1	51.6
293.15 K, x1 = 0.4999	1040.9	1589.2	39.2	26.02
293.15 K, x1 = 0.6	1031.22	1569.3	38.1	13.84
293.15 K, x1 = 0.7001	1022.09	1552.5	37.8	8.154
293.15 K, x1 = 0.8001	1013.33	1538.4	37.2	4.999
293.15 K, x1 = 0.8995	1005.23	1524.5	36.5	3.117
293.15 K, x1 = 1	997.91	1513.2	36.5	2.132
303.15 K, x1 = 0.1	1077.54	1672.2	43.6	211.41
303.15 K, x1 = 0.2005	1065.85	1637.9	41.3	110.73
303.15 K, x1 = 0.3001	1054.58	1607.8	40.1	55.57
303.15 K, x1 = 0.4002	1043.68	1581	39.1	29.59
303.15 K, x1 = 0.4999	1033.22	1557.4	38.4	16.21
303.15 K, x1 = 0.6	1023.25	1536.3	37.1	9.351
303.15 K, x1 = 0.7001	1013.95	1518.1	36.7	5.87
303.15 K, x1 = 0.8001	1005.2	1503.6	36.2	3.826
303.15 K, x1 = 0.8995	996.81	1487.8	35.3	2.496
303.15 K, x1 = 1	989.34	1475	35.2	1.777
313.15 K, x1 = 0.1	1070.86	1645.8	42	108.68
313.15 K, x1 = 0.2005	1058.79	1610.1	40.4	57.66
313.15 K, x1 = 0.3001	1047.53	1578.7	38.8	32.13
313.15 K, x1 = 0.4002	1036.08	1550.5	38.3	18.38
313.15 K, x1 = 0.4999	1025.43	1526.2	37	10.8
313.15 K, x1 = 0.6	1015.25	1503.7	36.3	6.732
313.15 K, x1 = 0.7001	1005.78	1484.4	35.9	4.419
313.15 K, x1 = 0.8001	996.9	1469.1	34.8	3.014
313.15 K, x1 = 0.8995	988.38	1451.6	34.4	2.058
313.15 K, x1 = 1	980.76	1437.6	34.2	1.515
323.15 K, x1 = 0.1	1064.04	1619.5	–	57.82
323.15 K, x1 = 0.2005	1051.64	1582.5	–	33.78
323.15 K, x1 = 0.3001	1039.8	1550	–	20.16
323.15 K, x1 = 0.4002	1028.42	1519.9	–	12.28
323.15 K, x1 = 0.4999	1017.57	1495.1	–	7.624
323.15 K, x1 = 0.6	1007.21	1471	–	5.011
323.15 K, x1 = 0.7001	997.61	1450.7	–	3.439
323.15 K, x1 = 0.8001	988.58	1434.7	–	2.429
323.15 K, x1 = 0.8995	979.92	1415.6	–	1.734
323.15 K, x1 = 1	972.16	1400.6	–	1.31
